pIC50: −log10 of the molar value. Calls of active or inactive are those of the source. The calls are words filed in the database; no cut-off is given here.
Legend:
SW-620 [1] = experiment: Cytotoxicity against human SW620 cells assessed as decrease in cell survival after 72 hrs by MTT assay; type: cell-based; details: SW-620, 72 h
SW620/AD300 [2] = experiment: Cytotoxicity against human SW620/AD300 cells assessed as decrease in cell survival after 72 hrs by MTT assay; type: cell-based; details: SW620/AD300, 72 h
ECa-109 cell line = experiment: Cytotoxicity against human EC109 cells assessed as decrease in cell survival at 10 to 20 uM after 72 hrs by MTT assay; type: cell-based; details: eca-109, 72 h
TE-1 = experiment: Cytotoxicity against human TE1 cells assessed as decrease in cell survival at 10 to 20 uM after 72 hrs by MTT assay; type: cell-based; details: te-1, 72 h
A549 = experiment: Cytotoxicity against human A549 cells assessed as decrease in cell survival at 10 to 20 uM after 72 hrs by MTT assay; type: cell-based; details: a549, 72 h
SGC-7901 = experiment: Cytotoxicity against human SGC7901 cells assessed as decrease in cell survival at 10 to 20 uM after 72 hrs by MTT assay; type: cell-based; details: sgc-7901, 72 h
MGC-803 = experiment: Cytotoxicity against human MGC803 cells assessed as decrease in cell survival at 10 to 20 uM after 72 hrs by MTT assay; type: cell-based; details: mgc-803, 72 h
SW-620 [3] = experiment: Potentiation of paclitaxel-induced cytotoxicity against human SW620 cells assessed as change in paclitaxel IC50 at 10 uM after 72 hrs by MTT assay relative to control; type: cell-based; details: sw-620, 72 h
SW-620 [4] = experiment: Potentiation of paclitaxel-induced cytotoxicity against human SW620 cells assessed as change in paclitaxel IC50 at 20 uM after 72 hrs by MTT assay relative to control; type: cell-based; details: sw-620, 72 h
SW-620 [5] = experiment: Potentiation of paclitaxel-induced cytotoxicity against human SW620 cells assessed as change in paclitaxel IC50 at 4 uM after 72 hrs by MTT assay relative to control; type: cell-based; details: sw-620, 72 h
SW-620 [6] = experiment: Potentiation of doxorubicin-induced cytotoxicity against human SW620 cells assessed as change in doxorubicin IC50 at 10 uM after 72 hrs by MTT assay relative to control; type: cell-based; details: sw-620, 72 h
SW-620 [7] = experiment: Potentiation of doxorubicin-induced cytotoxicity against human SW620 cells assessed as change in doxorubicin IC50 at 20 uM after 72 hrs by MTT assay relative to control; type: cell-based; details: sw-620, 72 h
SW-620 [8] = experiment: Potentiation of doxorubicin-induced cytotoxicity against human SW620 cells assessed as change in doxorubicin IC50 at 4 uM after 72 hrs by MTT assay relative to control; type: cell-based; details: sw-620, 72 h
SW-620 [9] = experiment: Potentiation of cisplatin-induced cytotoxicity against human SW620 cells assessed as change in cisplatin IC50 at 10 uM after 72 hrs by MTT assay relative to control; type: cell-based; details: sw-620, 72 h
SW-620 [10] = experiment: Potentiation of cisplatin-induced cytotoxicity against human SW620 cells assessed as change in cisplatin IC50 at 20 uM after 72 hrs by MTT assay relative to control; type: cell-based; details: sw-620, 72 h
SW-620 [11] = experiment: Potentiation of cisplatin-induced cytotoxicity against human SW620 cells assessed as change in cisplatin IC50 at 4 uM after 72 hrs by MTT assay relative to control; type: cell-based; details: sw-620, 72 h
[12] = Ratio of paclitaxel IC50 for cytotoxicity against human SW620 cells in absence of test compound to paclitaxel IC50 for human SW620/Ad300 cells in presence to 10 uM test compound; type: functional
[13] = Ratio of paclitaxel IC50 for cytotoxicity against human SW620 cells in absence of test compound to paclitaxel IC50 for human SW620/Ad300 cells in presence to 20 uM test compound; type: functional
[14] = Ratio of paclitaxel IC50 for cytotoxicity against human SW620 cells in absence of test compound to paclitaxel IC50 for human SW620/Ad300 cells in presence to 4 uM test compound; type: functional
[15] = Ratio of doxorubicin IC50 for cytotoxicity against human SW620 cells in absence of test compound to doxorubicin IC50 for human SW620/Ad300 cells in presence to 10 uM test compound; type: functional
[16] = Ratio of doxorubicin IC50 for cytotoxicity against human SW620 cells in absence of test compound to doxorubicin IC50 for human SW620/Ad300 cells in presence to 20 uM test compound; type: functional
[17] = Ratio of doxorubicin IC50 for cytotoxicity against human SW620 cells in absence of test compound to doxorubicin IC50 for human SW620/Ad300 cells in presence to 4 uM test compound; type: functional
[18] = Ratio of cisplatin IC50 for cytotoxicity against human SW620 cells in absence of test compound to cisplatin IC50 for human SW620/Ad300 cells in presence to 10 uM test compound; type: functional
[19] = Ratio of cisplatin IC50 for cytotoxicity against human SW620 cells in absence of test compound to cisplatin IC50 for human SW620/Ad300 cells in presence to 20 uM test compound; type: functional
[20] = Ratio of cisplatin IC50 for cytotoxicity against human SW620 cells in absence of test compound to cisplatin IC50 for human SW620/Ad300 cells in presence to 4 uM test compound; type: functional
HEK-293T [21] = experiment: Potentiation of paclitaxel-induced cytotoxicity against HEK293T cells assessed as change in paclitaxel IC50 at 10 uM after 72 hrs by MTT assay relative to control; type: cell-based; details: human
HEK-293T [22] = experiment: Potentiation of paclitaxel-induced cytotoxicity against HEK293T cells assessed as change in paclitaxel IC50 at 20 uM after 72 hrs by MTT assay relative to control; type: cell-based; details: human
HEK-293T [23] = experiment: Potentiation of paclitaxel-induced cytotoxicity against HEK293T cells assessed as change in paclitaxel IC50 at 4 uM after 72 hrs by MTT assay relative to control; type: cell-based; details: human
HEK-293T [24] = experiment: Potentiation of doxorubicin-induced cytotoxicity against HEK293T cells assessed as change in doxorubicin IC50 at 10 uM after 72 hrs by MTT assay relative to control; type: cell-based; details: human
HEK-293T [25] = experiment: Potentiation of doxorubicin-induced cytotoxicity against HEK293T cells assessed as change in doxorubicin IC50 at 20 uM after 72 hrs by MTT assay relative to control; type: cell-based; details: human
HEK-293T [26] = experiment: Potentiation of doxorubicin-induced cytotoxicity against HEK293T cells assessed as change in doxorubicin IC50 at 4 uM after 72 hrs by MTT assay relative to control; type: cell-based; details: human
HEK-293T [27] = experiment: Potentiation of cisplatin-induced cytotoxicity against HEK293T cells assessed as change in cisplatin IC50 at 10 uM after 72 hrs by MTT assay relative to control; type: cell-based; details: human
HEK-293T [28] = experiment: Potentiation of cisplatin-induced cytotoxicity against HEK293T cells assessed as change in cisplatin IC50 at 20 uM after 72 hrs by MTT assay relative to control; type: cell-based; details: human
HEK-293T [29] = experiment: Potentiation of cisplatin-induced cytotoxicity against HEK293T cells assessed as change in cisplatin IC50 at 4 uM after 72 hrs by MTT assay relative to control; type: cell-based; details: human
[30] = Ratio of paclitaxel IC50 for cytotoxicity against HEK293T cells in absence of test compound to paclitaxel IC50 for HEK293T cells expressing ABCB1 in presence of 10 uM test compound; type: functional, Homo sapiens
[31] = Ratio of paclitaxel IC50 for cytotoxicity against HEK293T cells in absence of test compound to paclitaxel IC50 for HEK293T cells expressing ABCB1 in presence of 20 uM test compound; type: functional, Homo sapiens
[32] = Ratio of paclitaxel IC50 for cytotoxicity against HEK293T cells in absence of test compound to paclitaxel IC50 for HEK293T cells expressing ABCB1 in presence of 4 uM test compound; type: functional, Homo sapiens
[33] = Ratio of doxorubicin IC50 for cytotoxicity against HEK293T cells in absence of test compound to doxorubicin IC50 for HEK293T cells expressing ABCB1 in presence of 10 uM test compound; type: functional, Homo sapiens
[34] = Ratio of doxorubicin IC50 for cytotoxicity against HEK293T cells in absence of test compound to doxorubicin IC50 for HEK293T cells expressing ABCB1 in presence of 20 uM test compound; type: functional, Homo sapiens
[35] = Ratio of doxorubicin IC50 for cytotoxicity against HEK293T cells in absence of test compound to doxorubicin IC50 for HEK293T cells expressing ABCB1 in presence of 4 uM test compound; type: functional, Homo sapiens
[36] = Ratio of cisplatin IC50 for cytotoxicity against HEK293T cells in absence of test compound to cisplatin IC50 for HEK293T cells expressing ABCB1 in presence of 10 uM test compound; type: functional, Homo sapiens
[37] = Ratio of cisplatin IC50 for cytotoxicity against HEK293T cells in absence of test compound to cisplatin IC50 for HEK293T cells expressing ABCB1 in presence of 20 uM test compound; type: functional, Homo sapiens
[38] = Ratio of cisplatin IC50 for cytotoxicity against HEK293T cells in absence of test compound to cisplatin IC50 for HEK293T cells expressing ABCB1 in presence of 4 uM test compound; type: functional, Homo sapiens
[39] = biological target: T1, ATP-dependent translocase ABCB1 (Homo sapiens, UniProt P08183); experiment: Inhibition of ABCB1 in human SW620/Ad300 cells assessed as potentiation of paclitaxel-induced cytotoxicity after 72 hrs by MTT assay; type: cell-based
T1 sequence (P08183 whole entry): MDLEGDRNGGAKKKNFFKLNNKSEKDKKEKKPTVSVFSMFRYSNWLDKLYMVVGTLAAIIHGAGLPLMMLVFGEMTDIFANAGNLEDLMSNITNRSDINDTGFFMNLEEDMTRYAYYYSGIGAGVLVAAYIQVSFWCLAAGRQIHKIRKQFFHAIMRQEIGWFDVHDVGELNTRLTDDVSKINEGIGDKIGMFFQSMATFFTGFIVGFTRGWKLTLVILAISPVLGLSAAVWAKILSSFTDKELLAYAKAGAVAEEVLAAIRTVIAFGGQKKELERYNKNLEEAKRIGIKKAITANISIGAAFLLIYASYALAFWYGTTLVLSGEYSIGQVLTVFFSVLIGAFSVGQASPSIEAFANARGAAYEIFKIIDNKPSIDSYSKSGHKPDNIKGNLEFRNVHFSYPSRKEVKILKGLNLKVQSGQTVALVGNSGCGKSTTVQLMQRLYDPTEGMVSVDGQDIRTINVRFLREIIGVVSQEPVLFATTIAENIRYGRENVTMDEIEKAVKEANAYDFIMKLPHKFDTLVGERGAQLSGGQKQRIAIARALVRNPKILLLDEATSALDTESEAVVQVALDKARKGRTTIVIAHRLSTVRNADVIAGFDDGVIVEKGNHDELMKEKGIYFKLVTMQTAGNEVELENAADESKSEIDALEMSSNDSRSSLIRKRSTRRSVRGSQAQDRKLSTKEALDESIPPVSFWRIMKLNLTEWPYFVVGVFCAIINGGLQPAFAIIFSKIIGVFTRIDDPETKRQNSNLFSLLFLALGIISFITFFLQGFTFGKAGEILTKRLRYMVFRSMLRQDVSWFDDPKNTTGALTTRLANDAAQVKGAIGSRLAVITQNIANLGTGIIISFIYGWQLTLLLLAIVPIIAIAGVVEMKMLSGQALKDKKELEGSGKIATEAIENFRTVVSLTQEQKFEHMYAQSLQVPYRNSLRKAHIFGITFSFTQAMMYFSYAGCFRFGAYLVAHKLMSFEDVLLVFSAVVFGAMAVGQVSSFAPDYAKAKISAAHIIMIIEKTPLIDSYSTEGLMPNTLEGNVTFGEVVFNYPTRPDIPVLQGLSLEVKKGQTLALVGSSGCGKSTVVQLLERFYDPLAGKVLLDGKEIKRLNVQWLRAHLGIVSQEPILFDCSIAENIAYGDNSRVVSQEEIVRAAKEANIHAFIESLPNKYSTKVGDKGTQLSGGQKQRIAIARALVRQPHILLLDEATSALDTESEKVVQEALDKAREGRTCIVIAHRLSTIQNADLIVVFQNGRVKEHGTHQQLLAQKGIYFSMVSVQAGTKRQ

[40] = biological target: T1, ATP-dependent translocase ABCB1; experiment: Inhibition of ABCB1 in human SW620/Ad300 cells assessed as potentiation of doxorubicin-induced cytotoxicity after 72 hrs by MTT assay; type: cell-based
[41] = biological target: T1, ATP-dependent translocase ABCB1; experiment: Inhibition of ABCB1 (unknown origin) expressed in HEK293T cells assessed as potentiation of doxorubicin-induced cytotoxicity after 72 hrs by MTT assay; type: cell-based
[42] = biological target: T1, ATP-dependent translocase ABCB1; experiment: Inhibition of ABCB1 in human SW620/Ad300 cells assessed as increase in intracellular paclitaxel accumulation at 10 to 20 uM preincubated for 72 hrs followed by paclitaxel addition and measured after 3 hrs by UPLC method; type: cell-based
SW620/AD300 [43] = experiment: Effect on expression of ABCB1 protein in human SW620/Ad300 cells at 10 to 20 uM by Western blot method; type: functional, cell-based
SW620/AD300 [44] = experiment: Effect on expression of ABCB1 protein in human SW620/Ad300 cells at 20 uM after 24 to 96 hrs by Western blot method; type: functional, cell-based
[45] = biological target: T1, ATP-dependent translocase ABCB1; experiment: Stabilization of ABCB1 in human SW620/Ad300 cells at 10 uM after 30 mins by cellular thermal shift assay; type: cell-based; details: 0.5 h

With O=c1cc(-c2ccccc2)[nH]c2nc(SCc3nc4ccccc4[nH]3)nn12 the pIC50 (SW-620 [1]) was 4.07, the pIC50 (SW620/AD300 [2]) was 3.97 and the Activity (ECa-109 cell line) was “Non-Toxic”. For the same molecule, the Activity (TE-1) was “Non-Toxic”, the Activity (A549) was “Non-Toxic” and the Activity (SGC-7901) was “Non-Toxic”. For the same molecule, the Activity (MGC-803) was “Non-Toxic”, the “fold change (FC)” value (SW-620 [3]) was 1.2 and the “fold change (FC)” value (SW-620 [4]) was 0.81. For the same molecule, the “fold change (FC)” value (SW-620 [5]) was 1.29, the “fold change (FC)” value (SW-620 [6]) was 1.17 and the “fold change (FC)” value (SW-620 [7]) was 1.14. For the same molecule, the “fold change (FC)” value (SW-620 [8]) was 1.18, the “fold change (FC)” value (SW-620 [9]) was 1.07 and the “fold change (FC)” value (SW-620 [10]) was 0.97. The “fold change (FC)” value (SW-620 [11]) was 1.1, the “Ratio IC50” value [12] was 279.2 and the “Ratio IC50” value [13] was 125.8. The “Ratio IC50” value [14] was 156.74, the “Ratio IC50” value [15] was 6.02 and the “Ratio IC50” value [16] was 3.77. For the same molecule, the “Ratio IC50” value [17] was 4.32, the “Ratio IC50” value [18] was 0.96 and the “Ratio IC50” value [19] was 1.01. The “Ratio IC50” value [20] was 0.98, the “fold change (FC)” value (HEK-293T [21]) was 0.87 and the “fold change (FC)” value (HEK-293T [22]) was 0.83. The “fold change (FC)” value (HEK-293T [23]) was 0.84, the “fold change (FC)” value (HEK-293T [24]) was 1.14 and the “fold change (FC)” value (HEK-293T [25]) was 1.08. For the same molecule, the “fold change (FC)” value (HEK-293T [26]) was 1.07, the “fold change (FC)” value (HEK-293T [27]) was 1.04 and the “fold change (FC)” value (HEK-293T [28]) was 0.98. The “fold change (FC)” value (HEK-293T [29]) was 0.89, the “Ratio IC50” value [30] was 27.8 and the “Ratio IC50” value [31] was 19.37. The “Ratio IC50” value [32] was 15.69, the “Ratio IC50” value [33] was 5.36 and the “Ratio IC50” value [34] was 4.05. The “Ratio IC50” value [35] was 4.1, the “Ratio IC50” value [36] was 1.05 and the “Ratio IC50” value [37] was 0.91. The “Ratio IC50” value [38] was 0.91, the “inhibition (INH)” value [39] was “Dose-dependent effect” and the “inhibition (INH)” value [40] was “Dose-dependent effect”. For the same molecule, the “inhibition (INH)” value [41] was “Dose-dependent effect”, the “inhibition (INH)” value [42] was “Active” and the Activity (SW620/AD300 [43]) was “inactive”. For the same molecule, the Activity (SW620/AD300 [44]) was “inactive” and the Activity [45] was “Active”.
